Measured values as given in patent US8178506B2, “Oligomeric compounds and compositions for use in modulation of small non-coding RNAs” (Regulus Therapeutics Inc., priority 2003, dated 2012).
In the oligonucleotide strings, read from the 5' end, every base follows the letter of its sugar. An asterisk marks phosphorothioate; unmarked linkages are phosphodiester. Other units and linkages are bracketed, terminal groups are in braces. A string of capitals states the bases alone. e = 2'-O-(2-methoxyethyl) (MOE); [5mC] = 5-methylcytosine; d = 2'-deoxy (DNA)

What was measured:
HeLa cells = experiment: Cell cycle assay in HeLa cells; assay type: cell-based, human; conditions: for % cells in cell cycle phase: G1 / % cells in cell cycle phase: G2/M / % cells in cell cycle phase: S / % cells in cell cycle phase: aneuploid / % cells in cell cycle phase: subG1: 48 hours after treatment, relative to untreated control (UTC=100); for phase of the cell cycle in which cells arrest or delay: HeLa
A549 cells = experiment: Cell cycle assay in A549 cells; assay type: cell-based, human; conditions: for % cells in cell cycle phase: G1 / % cells in cell cycle phase: G2/M / % cells in cell cycle phase: S / % cells in cell cycle phase: aneuploid / % cells in cell cycle phase: subG1: A549 cells, relative to the untreated control cells in that phase; for % cells in cell cycle phase: G1 / % cells in cell cycle phase: G2/M / % cells in cell cycle phase: S / % cells in cell cycle phase: aneuploid / % cells in cell cycle phase: subG1 / cell cycle delay or arrest (G2/M), dose response: 24 hours; for cell cycle delay or arrest (G2/M), dose response / G2/M delay or arrest, dose response: A549, 25-, 50-; for cell cycle delay or arrest (G2/M), dose response: 100- or 150 nM; for G2/M delay or arrest, dose response: 100-, or 150 nM
Protocol: In accordance with the present invention, certain oligomeric compounds targeting miRNAs were selected for dose response studies. Using the cell cycle assay described above, the cell cycle profiles of HeLa or A549 cells treated with varying concentrations of oligomeric compounds of the present invention were assessed.
Concomittent decreases in the percentage of cells in G1-phase of the cell cycle and increases in the percentage of hypodiploid (subG1) cells were also observed.
In a further study, A549 cells were treated with 25-, 50-, 100- or 150 nM of the oligomeric compounds ISIS Numbers 338637 (SEQ ID NO: 464) targeted against mir-96, and ISIS 338769 (SEQ ID NO: 596) targeted against mir-130b, ISIS 338836 (SEQ ID NO: 663) targeted against mir-23a, and ISIS 340350 (SEQ ID NO: 855) targeted against mir-95 (Mourelatos). Cells treated with increasing concentrations of oligomeric compounds were compared to untreated cells, to assess the dose-responsiveness of the observed delay or arrest. The random-mer ISIS 29848 was used as a negative control. Cells were prepared for flow cytometry 24-hours after oligonucleotide treatment. Results of these dose response studies are shown in Table 34, where data are expressed as percentage of cells in each phase relative to the untreated control cells in that phase.

PEPCK-c = PEPCK-c mRNA expression in HepG2 cells; assay type: cell-based, human; conditions: 100 nM; for reduction of PEPCK-c mRNA expression: HepG2, 1 nM insulin
HuVECs = experiment: Endothelial tube formation assay in HuVECs; conditions: 75 nM
T47D cells = experiment: Caspase-3 activity assay (apoptosis) in T47D cells; conditions: caspase assay, 200 nM; conclusion from Tables 9-12
[1] = HeLa cells, 150 nM oligomeric compound, 24 hours, relative to untreated control (UTC = 100)
[2] = HeLa cells, 150 nM oligomeric compound
[3] = HeLa cells, 150 nM, 48 hours, relative to untreated control

In the case of “338637 (antisense TCAGAGCGGAGAGACACAAG; all 2'-MOE, all phosphorothioate, methylation of C not given here) [compound 338637]”, the “% cells aneuploid” value (HeLa cells; [1]) was 188%, the “% cells in cell cycle phase G1” value (HeLa cells; [1]) was 170% and the “% cells in cell cycle phase G2/M” value (HeLa cells; [1]) was 84%. The “% cells in cell cycle phase S” value (HeLa cells; [1]) was 70%, the “% cells in cell cycle phase subG1” value (HeLa cells; [1]) was 88% and the “% cells in cell cycle phase: G1” value (HeLa cells; [2]) was 90%. The “% cells in cell cycle phase: G2/M” value (HeLa cells; [2]) was 117%, the “% cells in cell cycle phase: S” value (HeLa cells; [2]) was 109% and the “% cells in cell cycle phase: aneuploid” value (HeLa cells; [2]) was 210%. For the same substance, the “% cells in cell cycle phase: subG1” value (HeLa cells; [2]) was 239%, the “% cells in cell cycle phase: G1” value (A549 cells; 25 nM) was 100% and the “% cells in cell cycle phase: G2/M” value (A549 cells; 25 nM) was 101%. For the same substance, the “% cells in cell cycle phase: S” value (A549 cells; 25 nM) was 99%, the “% cells in cell cycle phase: aneuploid” value (A549 cells; 25 nM) was 99% and the “% cells in cell cycle phase: subG1” value (A549 cells; 25 nM) was 89%. The “% cells in cell cycle phase: G1” value (A549 cells; 50 nM) was 110%, the “% cells in cell cycle phase: G2/M” value (A549 cells; 50 nM) was 107% and the “% cells in cell cycle phase: S” value (A549 cells; 50 nM) was 89%. The “% cells in cell cycle phase: aneuploid” value (A549 cells; 50 nM) was 120%, the “% cells in cell cycle phase: subG1” value (A549 cells; 50 nM) was 86% and the “% cells in cell cycle phase: G1” value (A549 cells; 100 nM) was 126%. For the same substance, the “% cells in cell cycle phase: G2/M” value (A549 cells; 100 nM) was 115%, the “% cells in cell cycle phase: S” value (A549 cells; 100 nM) was 73% and the “% cells in cell cycle phase: aneuploid” value (A549 cells; 100 nM) was 146%. The “% cells in cell cycle phase: subG1” value (A549 cells; 100 nM) was 67%, the “% cells in cell cycle phase: G1” value (A549 cells; 150 nM) was 123% and the “% cells in cell cycle phase: G2/M” value (A549 cells; 150 nM) was 144%. For the same substance, the “% cells in cell cycle phase: S” value (A549 cells; 150 nM) was 66%, the “% cells in cell cycle phase: aneuploid” value (A549 cells; 150 nM) was 135% and the “% cells in cell cycle phase: subG1” value (A549 cells; 150 nM) was 216%.
In the case of “338836 (antisense TCCTCGGTGGCAGAGCTCAG; all 2'-MOE, all phosphorothioate, methylation of C not given here) [compound 338836]”, the “% cells aneuploid” value (HeLa cells; [1]) was 150%, the “% cells in cell cycle phase G1” value (HeLa cells; [1]) was 185% and the “% cells in cell cycle phase G2/M” value (HeLa cells; [1]) was 105%. For the same substance, the “% cells in cell cycle phase S” value (HeLa cells; [1]) was 53%, the “% cells in cell cycle phase subG1” value (HeLa cells; [1]) was 153% and the “% cells in cell cycle phase: G1” value (HeLa cells; [2]) was 52%. For the same substance, the “% cells in cell cycle phase: G2/M” value (HeLa cells; [2]) was 169%, the “% cells in cell cycle phase: S” value (HeLa cells; [2]) was 152% and the “% cells in cell cycle phase: aneuploid” value (HeLa cells; [2]) was 165%. For the same substance, the “% cells in cell cycle phase: subG1” value (HeLa cells; [2]) was 811%, the “% cells in cell cycle phase G1” value (HeLa cells; [3]) was 97% and the “% cells in cell cycle phase G2/M” value (HeLa cells; [3]) was 121%. For the same substance, the “% cells in cell cycle phase S” value (HeLa cells; [3]) was 96%, the “% cells in cell cycle phase aneuploid” value (HeLa cells; [3]) was 114% and the “% cells in cell cycle phase subG1” value (HeLa cells; [3]) was 303%. For the same substance, the “% cells in cell cycle phase: G1” value (A549 cells; 25 nM) was 97%, the “% cells in cell cycle phase: G2/M” value (A549 cells; 25 nM) was 97% and the “% cells in cell cycle phase: S” value (A549 cells; 25 nM) was 103%. The “% cells in cell cycle phase: aneuploid” value (A549 cells; 25 nM) was 99%, the “% cells in cell cycle phase: subG1” value (A549 cells; 25 nM) was 76% and the “% cells in cell cycle phase: G1” value (A549 cells; 50 nM) was 113%. The “% cells in cell cycle phase: G2/M” value (A549 cells; 50 nM) was 98%, the “% cells in cell cycle phase: S” value (A549 cells; 50 nM) was 89% and the “% cells in cell cycle phase: aneuploid” value (A549 cells; 50 nM) was 111%. The “% cells in cell cycle phase: subG1” value (A549 cells; 50 nM) was 232%, the “% cells in cell cycle phase: G1” value (A549 cells; 100 nM) was 117% and the “% cells in cell cycle phase: G2/M” value (A549 cells; 100 nM) was 116%. For the same substance, the “% cells in cell cycle phase: S” value (A549 cells; 100 nM) was 80%, the “% cells in cell cycle phase: aneuploid” value (A549 cells; 100 nM) was 153% and the “% cells in cell cycle phase: subG1” value (A549 cells; 100 nM) was 68%. For the same substance, the “% cells in cell cycle phase: G1” value (A549 cells; 150 nM) was 117%, the “% cells in cell cycle phase: G2/M” value (A549 cells; 150 nM) was 149% and the “% cells in cell cycle phase: S” value (A549 cells; 150 nM) was 69%. The “% cells in cell cycle phase: aneuploid” value (A549 cells; 150 nM) was 114% and the “% cells in cell cycle phase: subG1” value (A549 cells; 150 nM) was 178%.
With “GAGACCCAGTAGCCAGATGTAGCT (chemistry not given here) [ISIS 327920]” the “reduction of PEPCK-c mRNA expression” value (PEPCK-c) was 41%, the “decrease in PEPCK-c mRNA” value (PEPCK-c; HepG2, basal (no insulin)) was 48% and the tube formation (HuVECs) was “suppressed tube formation”.
In the case of “GCTTCCCAGCGGCCTATAGT (chemistry not given here) [ISIS 338769]”, the “phase of the cell cycle in which cells arrest or delay” value (shortened to “phase of the cell cycle”) (HeLa cells; 150 nM, 24 hours) was “G1-phase”, the “phase of the cell cycle” value (HeLa cells; 150 nM, 48 hours) was “S-phase” and the “cell cycle delay or arrest (G2/M), dose response” value (shortened to “cell cycle delay or arrest (G2/M)”) (A549 cells) was “dose-responsive delay or arrest”.
With “GGCTGTCAATTCATAGGTCAG (anti-miR; chemistry not fully specified) [ISIS 327902, uniform 2′-MOE PS; targets mir-192-1]” the “phase of the cell cycle” value (HeLa cells; 150 nM, 24 hours) was “G2/M-phase”, the “phase of the cell cycle” value (HeLa cells; 150 nM, 48 hours) was “S- and G2/M-phases” and the tube formation (HuVECs) was “suppressed tube formation”. The “G2/M delay or arrest, dose response” value (A549 cells) was “dose-responsive G2/M delay or arrest”.
With “ISIS 328342: SEQ ID NO: 451, targeting mir-203 (e[5mC]*eA*eA*eT*eT*dG*d[5mC]*dG*d[5mC]*dT*dA*d[5mC]*dA*dG*dA*eA*e[5mC]*eT*eG*eT)” the “reduction of PEPCK-c mRNA expression” value (PEPCK-c) was 61%, the “phase of the cell cycle” value (HeLa cells; 150 nM, both 24 and 48 hours) was “G2/M-phase” and the “G2/M delay or arrest, dose response” value (A549 cells) was “dose-responsive G2/M delay or arrest”.
“ISIS 328383: chimeric 2′-MOE gapmer targeted against the mir-192-1 precursor (eA*eG*eA*eG*eG*dG*dG*dA*dG*dA*d[5mC]*dG*dA*dG*dA*eG*e[5mC]*eA*e[5mC]*eT)” was tested, and the “apoptosis in T47D cells” value (T47D cells) was “induce apoptosis”, the “phase of the cell cycle” value (HeLa cells; 150 nM, 24 hours) was “G2/M-phase” and the “phase of the cell cycle” value (HeLa cells; 150 nM, 48 hours) was “S- and G2/M-phases”. For the same substance, the “G2/M delay or arrest, dose response” value (A549 cells) was “dose-responsive G2/M delay or arrest”.
“ISIS 338637: SEQ ID NO: 464, targeted against mir-96 (TCAGAGCGGAGAGACACAAG; all 2'-MOE, all phosphorothioate, methylation of C not given here)” was tested, and the “phase of the cell cycle” value (HeLa cells; 150 nM, 24 hours) was “G1-phase”, the “phase of the cell cycle” value (HeLa cells; 150 nM, 48 hours) was “S-phase” and the “cell cycle delay or arrest (G2/M)” value (A549 cells) was “dose-responsive delay or arrest”.
In the case of “ISIS 338836: SEQ ID NO: 663, targeted against mir-23a (TCCTCGGTGGCAGAGCTCAG; all 2'-MOE, all phosphorothioate, methylation of C not given here)”, the “phase of the cell cycle” value (HeLa cells; 150 nM, 24 hours) was “G1-phase”, the “phase of the cell cycle” value (HeLa cells; 150 nM, 48 hours) was “S-phase” and the “cell cycle delay or arrest (G2/M)” value (A549 cells) was “dose-responsive delay or arrest”.
In the case of “ISIS 340350: SEQ ID NO: 855, targeted against mir-95 (Mourelatos) (TGCTCAATAAATACCCGTTGAA; all 2'-MOE, all phosphorothioate, methylation of C not given here)”, the “phase of the cell cycle” value (HeLa cells; 150 nM, 24 hours) was “G1-phase”, the “phase of the cell cycle” value (HeLa cells; 150 nM, 48 hours) was “S-phase” and the “cell cycle delay or arrest (G2/M)” value (A549 cells) was “dose-responsive delay or arrest”.
